Measurements as given in patent US8455497B2, “Inhibitors of aspartyl protease” (Vertex Pharmaceuticals Incorporated, priority 1999, dated 2013).
Where two headings read alike, the source gives them in different places.

Tested on: HIV-1 (strain IIIB)
Test: Antiviral activity assay in MT4 cells (propidium iodide based)
Type: cell-based
Settings: wild type HIV-1 virus, MT4 cells, read-out: Wildtype virus - IC50
Description: Antiviral Activity Assay in MT4 Cells
Aliquots of the test compounds were serially diluted in medium (RPMI 1640, 10% fetal calf serum (FCS), and gentamycin) in 96-well plates (Costar 3598) using a Cetus Pro/Pette. Exponentially growing MT4 cells were harvested and centrifuged at 1000 rpm for 10 min in a Jouan centrifuge (model CR 4 12). Cell pellets were resuspended in fresh medium (RPMI 1640, 20% FCS, 20% IL-2, and gentamycin) to a density of 5×10^5 cells/ml. Cell aliquots were infected by the addition of HIV-1 (strain IIIB) diluted to give a viral multiplicity of infection of 100×TCID50. A similar cell aliquot was diluted with medium to provide a mock-infected control. Cell infection was allowed to proceed for 1 hr at 37° in a tissue culture incubator with humidified 5% CO2 atmosphere. After the 1 hr incubation the virus/cell suspensions were diluted 6-fold with fresh medium, and 125 μl of the cell suspension was added to each well of the plate containing pre-diluted compound. Plates were then placed in a tissue culture incubator with humidified 5% CO2 for 5 days. At the end of the incubation period, 27 μl of 5% Nonidet-40 was added to each well of the incubation plate. After thorough mixing with a Costar multitip pipetter, 60 μl of the mixture was transferred to filter-bottomed 96-well plates. The plates were analyzed in an automated assay instrument (Screen Machine, Idexx Laboratories). The assay makes use of a propidium iodide dye to estimate the DNA content of each well.
The anti-viral potency in MT-4 cells of the compounds set forth in Tables 1 and 2 was determined using the above technique.

[1] = Human immunodeficiency virus 1, IIIB

| IC50 [1] [nM] | SMILES | IC50 [nM] |
| --- | --- | --- |
| – | CC(C)CN(C[C@@H](O)[C@H](Cc1ccc(OCc2ccsc2)cc1)NC(=O)O[C@H]1CO[C@H]2OCC[C@H]21)S(=O)(=O)c1ccc2c(c1)OCO2 [Compound 207] | 1 to 10 |
| – | CC(C)CN(C[C@@H](O)[C@H](Cc1ccc(OCCc2ccsc2)cc1)NC(=O)O[C@H]1CO[C@H]2OCC[C@H]21)S(=O)(=O)c1ccc2c(c1)OCO2 [Compound 208] | 10 to 100 |
| – | CC(C)CN(C[C@@H](O)[C@H](Cc1ccc(OCCc2cccs2)cc1)NC(=O)O[C@H]1CO[C@H]2OCC[C@H]21)S(=O)(=O)c1ccc2c(c1)OCO2 [Compound 209] | 1 to 10 |
| – | CC(C)CN(C[C@@H](O)[C@H](Cc1ccc(OCCc2ccncc2)cc1)NC(=O)O[C@H]1CO[C@H]2OCC[C@H]21)S(=O)(=O)c1ccc2c(c1)OCO2 [Compound 211] | 1 to 10 |
| – | Cc1ncsc1CCOc1ccc(C[C@H](NC(=O)O[C@H]2CO[C@H]3OCC[C@H]32)[C@H](O)CN(CC(C)C)S(=O)(=O)c2ccc3c(c2)OCO3)cc1 [Compound 213] | 1 to 10 |
| – | CC(C)CN(C[C@@H](O)[C@H](Cc1ccc(OCCCc2cccnc2)cc1)NC(=O)O[C@H]1CO[C@H]2OCC[C@H]21)S(=O)(=O)c1ccc2c(c1)OCO2 [Compound 214] | 1 to 10 |
| – | CC(C)CN(C[C@@H](O)[C@H](Cc1ccc(OCCc2ccc(C#N)cc2)cc1)NC(=O)O[C@H]1CO[C@H]2OCC[C@H]21)S(=O)(=O)c1ccc2c(c1)OCO2 [Compound 215] | 1 to 10 |
| – | CC(C)CN(C[C@@H](O)[C@H](Cc1ccc(OCCCC(F)(F)F)cc1)NC(=O)O[C@H]1CO[C@H]2OCC[C@H]21)S(=O)(=O)c1ccc2c(c1)OCO2 [Compound 216] | 1 to 10 |
| – | CC(C)CN(C[C@@H](O)[C@H](Cc1ccc(OCCC(F)(F)F)cc1)NC(=O)O[C@H]1CO[C@H]2OCC[C@H]21)S(=O)(=O)c1ccc2c(c1)OCO2 [Compound 217] | 1 to 10 |
| – | CC(C)CC(=O)NCCCOc1ccc(C[C@H](NC(=O)O[C@H]2CO[C@H]3OCC[C@H]32)[C@H](O)CN(CC(C)C)S(=O)(=O)c2ccc3c(c2)OCO3)cc1 [Compound 231] | 1 to 10 |
| – | CC(C)CN(C[C@@H](O)[C@H](Cc1ccc(OCCCNC(=O)C(C)(C)C)cc1)NC(=O)O[C@H]1CO[C@H]2OCC[C@H]21)S(=O)(=O)c1ccc2c(c1)OCO2 [Compound 232] | 1 to 10 |
| – | CC(C)CN(C[C@@H](O)[C@H](Cc1ccc(OCCNC(=O)c2ccco2)cc1)NC(=O)O[C@H]1CO[C@H]2OCC[C@H]21)S(=O)(=O)c1ccc2c(c1)OCO2 [Compound 234] | 1 to 10 |
| – | CCOC(=O)NCCOc1ccc(C[C@H](NC(=O)O[C@H]2CO[C@H]3OCC[C@H]32)[C@H](O)CN(CC(C)C)S(=O)(=O)c2ccc3c(c2)OCO3)cc1 [Compound 245] | 1 to 10 |
| – | CCOC(=O)NCCCOc1ccc(C[C@H](NC(=O)O[C@H]2CO[C@H]3OCC[C@H]32)[C@H](O)CN(CC(C)C)S(=O)(=O)c2ccc3c(c2)OCO3)cc1 [Compound 246] | 1 to 10 |
| – | CCOC(=O)NCCCCOc1ccc(C[C@H](NC(=O)O[C@H]2CO[C@H]3OCC[C@H]32)[C@H](O)CN(CC(C)C)S(=O)(=O)c2ccc3c(c2)OCO3)cc1 [Compound 247] | 1 to 10 |
| – | CC(C)CN(C[C@@H](O)[C@H](Cc1ccc(OCCNC(=O)OC(C)C)cc1)NC(=O)O[C@H]1CO[C@H]2OCC[C@H]21)S(=O)(=O)c1ccc2c(c1)OCO2 [Compound 248] | 1 to 10 |
| – | CC(C)CN(C[C@@H](O)[C@H](Cc1ccc(OCCCNC(=O)OC(C)C)cc1)NC(=O)O[C@H]1CO[C@H]2OCC[C@H]21)S(=O)(=O)c1ccc2c(c1)OCO2 [Compound 249] | 1 to 10 |
| – | CC(C)CN(C[C@@H](O)[C@H](Cc1ccc(OCCCCNC(=O)OC(C)C)cc1)NC(=O)O[C@H]1CO[C@H]2OCC[C@H]21)S(=O)(=O)c1ccc2c(c1)OCO2 [Compound 250] | 1 to 10 |
| – | CC(C)CN(C[C@@H](O)[C@H](Cc1ccc(OCCCCNS(C)(=O)=O)cc1)NC(=O)O[C@H]1CO[C@H]2OCC[C@H]21)S(=O)(=O)c1ccc2c(c1)OCO2 [Compound 252] | 1 to 10 |
| – | CC(C)CN(C[C@@H](O)[C@H](Cc1ccc(OCCCNC(=O)N(C)C)cc1)NC(=O)O[C@H]1CO[C@H]2OCC[C@H]21)S(=O)(=O)c1ccc2c(c1)OCO2 [Compound 254] | 1 to 10 |
| 10 to 100 | CC(C)(CCCC#N)CN(C[C@@H](O)[C@H](Cc1ccc(OCc2ccccc2)cc1)NC(=O)OC1COCOC1)S(=O)(=O)c1ccc2c(c1)OCO2 [Compound 306, 1,3-Dioxan-5-yl (1S,2R)-3-[(1,3-benzodioxol-5-ylsulfonyl)(5-cyano-2,2-dimethylpentyl)amino]-1-[4 (benzyloxy)benzyl]-2-hydroxypropylcarbamate] | – |
| 10 to 100 | CC(C)(CCCC#N)CN(C[C@@H](O)[C@H](Cc1ccc(OCc2ccccc2)cc1)NC(=O)O[C@H]1CCOC1)S(=O)(=O)c1ccc2c(c1)OCO2 [Compound 307, (3S)-Tetrahydro-3-furanyl (1S,2R)-3-[(1,3-benzodioxol-5-ylsulfonyl)(5-cyano-2,2-dimethylpentyl)amino]-1-[4-(benzyloxy)benzyl]-2-hydroxypropylcarbamate] | – |
| 10 to 100 | Cc1cccc(C)c1OCC(=O)N[C@@H](Cc1ccc(OCc2ccccc2)cc1)[C@H](O)CN(CC(C)C)S(=O)(=O)c1ccc2c(c1)OCO2 [Compound 325, N-{(1S,2R)-3-[(1,3-Benzodioxol-5-ylsulfonyl)(isobutyl)amino]-1-[4-(benzyloxy)benzyl]-2-hydroxypropyl}-2-(2,6-dimethylphenoxy)acetamide] | – |
| 10 to 100 | CCOC(CCOC(=O)N[C@@H](Cc1ccc(OCc2ccccc2)cc1)[C@H](O)CN(CC(C)C)S(=O)(=O)c1ccc2c(c1)OCO2)OCC [Compound 328, 3,3-Diethoxypropyl (1S,2R)-3-[(1,3-benzodioxol-5-ylsulfonyl)(isobutyl)amino]-1-[4-(benzyloxy)benzyl]-2-hydroxypropylcarbamate] | – |
| 10 to 100 | CCC(CC)ON(C[C@@H](O)[C@H](Cc1ccc(OCc2ccccc2)cc1)NC(=O)OC1COCOC1)S(=O)(=O)c1ccc2c(c1)OCO2 [Compound 330, 1,3-Dioxan-5-yl (1S,2R)-3-[(1,3-benzodioxol-5-ylsulfonyl) (1-ethylpropoxy)amino]-1-[4-(benzyloxy)benzyl]-2-hydroxypropylcarbamate] | – |
| 10 to 100 | CC(C)CN(C[C@@H](O)[C@H](Cc1ccc(OCCCC(=O)O)cc1)NC(=O)O[C@H]1CO[C@H]2OCC[C@H]21)S(=O)(=O)c1ccc2c(c1)OCO2 [Compound 339, 4-(4-{(2S,3R)-2-({[(3R,3aS,6aR)-hexahydrofuro[2,3-b]furan-3-yloxy]carbonyl}amino)-4-[(1,3-benzodioxol-5-ylsulfonyl)(isobutyl)amino]-3-hydroxybutyl}phenoxy) butanoic acid] | – |
| 10 to 100 | CC(C)CN(C[C@@H](O)[C@H](Cc1ccc(OCc2ccccc2)cc1)NC(=O)O[C@H]1CO[C@H]2OCC[C@H]21)S(=O)(=O)c1ccc2c(c1)OC(F)(F)O2 [Compound 340, (3R,3aS,6aR)-hexahydrofuro[2,3-b]furan-3-yl (1S,2R)-1-[4-(benzyloxy)benzyl]-3-[[(2,2-difluoro-1,3-benzodioxol-5-yl)sulfonyl](isobutyl)amino]-2-hydroxypropylcarbamate] | – |
| 10 to 100 | Cc1cc(S(=O)(=O)N(CC(C)C)C[C@@H](O)[C@H](Cc2ccc(OCc3cccc(C#N)c3)cc2)NC(=O)O[C@H]2CO[C@H]3OCC[C@H]32)ccc1O [Compound 346] | – |
| 10 to 100 | Cc1cccc(C)c1OCC(=O)N[C@@H](Cc1ccc(OS(=O)(=O)c2ccc3c(c2)OCO3)cc1)[C@H](O)CN(CC(C)C)S(=O)(=O)c1ccc2c(c1)OCO2 [Compound 350, 4-((2S,3R)-4-[(1,3-benzodioxol-5-ylsulfonyl)(isobutyl)amino]-2-{[(2,6-dimethylphenoxy)acetyl]amino}-3-hydroxybutyl)phenyl 1,3-benzodioxole-5-sulfonate] | – |
| 10 to 100 | CC(C)CN(C[C@@H](O)[C@H](Cc1ccc(OCCN)cc1)NC(=O)O[C@H]1CO[C@H]2OCC[C@H]21)S(=O)(=O)c1ccc2c(c1)OCO2 [Compound 354, (3R,3aS,6aR)hexahydrofuro[2,3-b]furan-3-yl (1S,2R)-3-[(1,3-benzodioxol-5-ylsulfonyl)(isobutyl)amino]-2-hydroxy-1-[4-(2-aminoethoxy)benzyl]propylcarbamate] | – |

| SMILES | IC50 [1] [nM] | IC50 [nM] |
| --- | --- | --- |
| CC(C)CN(C[C@@H](O)[C@H](Cc1ccc(OCCCCN)cc1)NC(=O)O[C@H]1CO[C@H]2OCC[C@H]21)S(=O)(=O)c1ccc2c(c1)OCO2 [Compound 224, (3R,3aS,6aR)-hexahydrofuro[2,3-b]furan-3-yl (1S,2R)-1-[4-(4-aminobutoxy)benzyl]-3-[(1,3-benzodioxol-5-ylsulfonyl) (isobutyl)amino]-2-hydroxypropylcarbamate] | 10 to 100 | – |
| CC(C)CN(C[C@@H](O)[C@H](Cc1ccc(OCCCC(N)=O)cc1)NC(=O)O[C@H]1CO[C@H]2OCC[C@H]21)S(=O)(=O)c1ccc2c(c1)OCO2 [Compound 285, (3R,3aS,6aR)-hexahydrofuro[2,3-b]furan-3-yl (1S,2R)-1-[4-(4-amino-4-oxobutoxy)benzyl]-3-[(1,3-benzodioxol-5-ylsulfonyl)(isobutyl)amino]-2-hydroxypropylcarbamate] | 10 to 100 | – |
